The values that follow come from ChEMBL document CHEMBL1137200, “Discovery of a Subnanomolar helical D-tridecapeptide inhibitor of gamma-secretase” (J Med Chem, 2004).

The target of assay [1] is Gamma-secretase. Kind of assay: Inhibitory activity against Gamma-secretase in detergent-solubilized HeLa cell membranes with recombinant APP-based substrate.
Assay [2] has as its target Gamma-secretase. The experiment in a line: Inhibitory activity against Gamma-secretase from APP-transfected CHO cells. Format: functional, cell-based, Homo sapiens.

pIC50: −log10 of the molar value.

As a reminder, the pIC50 is the IC50 on a negative log10 scale, so that one unit is a factor of ten. For the compound `CC[C@H](C)[C@H](NC(=O)[C@@H](NC(=O)[C@@H](NC(=O)C(C)(C)NC(=O)CNC(=O)[C@@H](NC(=O)C(C)(C)NC(=O)[C@H](CC(C)C)NC(=O)OC(C)(C)C)C(C)C)C(C)C)C(C)C)C(=O)NC(C)(C)C(=O)N[C@H](C(=O)N[C@H](C(=O)NC(C)(C)C(=O)N[C@H](C(=O)N[C@H](C(=O)NC(C)(C)C(=O)OC)[C@@H](C)CC)C(C)C)C(C)C)[C@@H](C)OCc1ccccc1`, the pIC50 in assay [1] is 5.33.
The same measure, in the same setting: as for `CC[C@H](C)[C@H](NC(=O)[C@@H](NC(=O)[C@@H](NC(=O)C(C)(C)NC(=O)CNC(=O)[C@@H](NC(=O)C(C)(C)NC(=O)[C@H](CC(C)C)NC(=O)CNC(=O)OC(C)(C)C)C(C)C)C(C)C)C(C)C)C(=O)NC(C)(C)C(=O)N[C@H](C(=O)N[C@H](C(=O)NC(C)(C)C(=O)N[C@H](C(=O)N[C@H](C(=O)NC(C)(C)C(=O)OC)[C@@H](C)CC)C(C)C)C(C)C)[C@@H](C)OCc1ccccc1`, the figure is 4.96; as for `CC[C@@H](C)[C@@H](NC(=O)[C@H](NC(=O)[C@H](NC(=O)C(C)(C)NC(=O)CNC(=O)OC(C)(C)C)C(C)C)C(C)C)C(=O)NC(C)(C)C(=O)N[C@@H](C(=O)N[C@@H](C(=O)NC(C)(C)C(=O)N[C@@H](C(=O)N[C@@H](C(=O)NC(C)(C)C(=O)OC)[C@H](C)CC)C(C)C)C(C)C)[C@H](C)OCc1ccccc1`, 7.92.
Regarding `CC[C@@H](C)[C@@H](NC(=O)[C@H](NC(=O)[C@H](NC(=O)C(C)(C)NC(=O)CNC(=O)[C@H](NC(=O)OC(C)(C)C)C(C)C)C(C)C)C(C)C)C(=O)NC(C)(C)C(=O)N[C@@H](C(=O)N[C@@H](C(=O)NC(C)(C)C(=O)N[C@@H](C(=O)N[C@@H](C(=O)NC(C)(C)C(=O)OC)[C@H](C)CC)C(C)C)C(C)C)[C@H](C)OCc1ccccc1`, the pIC50 in assay [2] is 8.05; in assay [1], 9.85.
In the case of `CC[C@@H](C)[C@@H](NC(=O)[C@H](NC(=O)[C@H](NC(=O)C(C)(C)NC(=O)CNC(=O)[C@H](NC(=O)C(C)(C)NC(=O)OC(C)(C)C)C(C)C)C(C)C)C(C)C)C(=O)NC(C)(C)C(=O)N[C@@H](C(=O)N[C@@H](C(=O)NC(C)(C)C(=O)N[C@@H](C(=O)N[C@@H](C(=O)NC(C)(C)C(=O)OC)[C@H](C)CC)C(C)C)C(C)C)[C@H](C)OCc1ccccc1`, the pIC50 in assay [1] is 7.85.
The same measure, in the same setting: as for `CC[C@H](C)[C@H](NC(=O)[C@@H](NC(=O)[C@@H](NC(=O)C(C)(C)NC(=O)CNC(=O)[C@@H](NC(=O)OC(C)(C)C)C(C)C)C(C)C)C(C)C)C(=O)NC(C)(C)C(=O)N[C@H](C(=O)N[C@H](C(=O)NC(C)(C)C(=O)OC)C(C)C)[C@@H](C)OCc1ccccc1`, the figure is 4.52; as for `CC[C@H](C)[C@H](NC(=O)[C@@H](NC(=O)[C@@H](NC(=O)C(C)(C)NC(=O)CNC(=O)OC(C)(C)C)C(C)C)C(C)C)C(=O)NC(C)(C)C(=O)N[C@H](C(=O)N[C@H](C(=O)NC(C)(C)C(=O)N[C@H](C(=O)N[C@H](C(=O)NC(C)(C)C(=O)OC)[C@@H](C)CC)C(C)C)C(C)C)[C@@H](C)OCc1ccccc1`, 6.44.
For the compound `CC[C@H](C)[C@H](NC(=O)[C@@H](NC(=O)[C@@H](NC(=O)C(C)(C)NC(=O)OC(C)(C)C)C(C)C)C(C)C)C(=O)NC(C)(C)C(=O)N[C@H](C(=O)N[C@H](C(=O)NC(C)(C)C(=O)N[C@H](C(=O)N[C@H](C(=O)NC(C)(C)C(=O)OC)[C@@H](C)CC)C(C)C)C(C)C)[C@@H](C)OCc1ccccc1`, in assay [1], the pIC50 was 5.51.
The same measure, in the same setting: as for `CC[C@@H](C)[C@@H](NC(=O)[C@H](NC(=O)[C@H](NC(=O)C(C)(C)NC(=O)CNC(=O)[C@H](NC(=O)C(C)(C)NC(=O)[C@@H](CC(C)C)NC(=O)CNC(=O)OC(C)(C)C)C(C)C)C(C)C)C(C)C)C(=O)NC(C)(C)C(=O)N[C@@H](C(=O)N[C@@H](C(=O)NC(C)(C)C(=O)N[C@@H](C(=O)N[C@@H](C(=O)NC(C)(C)C(=O)OC)[C@H](C)CC)C(C)C)C(C)C)[C@H](C)OCc1ccccc1`, the figure is 7.59.
In the case of `CC[C@H](C)[C@H](NC(=O)[C@@H](NC(=O)[C@@H](NC(=O)C(C)(C)NC(=O)CNC(=O)[C@@H](NC(=O)OC(C)(C)C)C(C)C)C(C)C)C(C)C)C(=O)NC(C)(C)C(=O)N[C@H](C(=O)N[C@H](C(=O)NC(C)(C)C(=O)N[C@H](C(=O)N[C@H](C(=O)NC(C)(C)C(=O)OC)[C@@H](C)CC)C(C)C)C(C)C)[C@@H](C)OCc1ccccc1`, the pIC50 in assay [1] is 6.11.
For the compound `CC[C@H](C)[C@H](NC(=O)[C@@H](NC(=O)[C@@H](NC(=O)OC(C)(C)C)C(C)C)C(C)C)C(=O)NC(C)(C)C(=O)N[C@H](C(=O)N[C@H](C(=O)NC(C)(C)C(=O)N[C@H](C(=O)N[C@H](C(=O)NC(C)(C)C(=O)OC)[C@@H](C)CC)C(C)C)C(C)C)[C@@H](C)OCc1ccccc1`, in assay [1], the pIC50 was 5.00.
Still for that read-out and setting: as for `CC[C@@H](C)[C@@H](NC(=O)[C@H](NC(=O)[C@H](NC(=O)C(C)(C)NC(=O)CNC(=O)[C@H](NC(=O)OC(C)(C)C)C(C)C)C(C)C)C(C)C)C(=O)NC(C)(C)C(=O)N[C@@H](C(=O)N[C@@H](C(=O)NC(C)(C)C(=O)OC)C(C)C)[C@H](C)OCc1ccccc1`, the figure is 7.05.
Still for that read-out and setting: as for `CC[C@@H](C)[C@@H](NC(=O)[C@H](NC(=O)[C@H](NC(=O)OC(C)(C)C)C(C)C)C(C)C)C(=O)NC(C)(C)C(=O)N[C@@H](C(=O)N[C@@H](C(=O)NC(C)(C)C(=O)N[C@@H](C(=O)N[C@@H](C(=O)NC(C)(C)C(=O)OC)[C@H](C)CC)C(C)C)C(C)C)[C@H](C)OCc1ccccc1`, the figure is 7.60; as for `CC[C@H](C)[C@H](NC(=O)[C@@H](NC(=O)[C@@H](NC(=O)C(C)(C)NC(=O)CNC(=O)[C@@H](NC(=O)C(C)(C)NC(=O)OC(C)(C)C)C(C)C)C(C)C)C(C)C)C(=O)NC(C)(C)C(=O)N[C@H](C(=O)N[C@H](C(=O)NC(C)(C)C(=O)N[C@H](C(=O)N[C@H](C(=O)NC(C)(C)C(=O)OC)[C@@H](C)CC)C(C)C)C(C)C)[C@@H](C)OCc1ccccc1`, 6.04; as for `CC[C@@H](C)[C@@H](NC(=O)[C@H](NC(=O)[C@H](NC(=O)C(C)(C)NC(=O)CNC(=O)[C@H](NC(=O)C(C)(C)NC(=O)[C@@H](CC(C)C)NC(=O)OC(C)(C)C)C(C)C)C(C)C)C(C)C)C(=O)NC(C)(C)C(=O)N[C@@H](C(=O)N[C@@H](C(=O)NC(C)(C)C(=O)N[C@@H](C(=O)N[C@@H](C(=O)NC(C)(C)C(=O)OC)[C@H](C)CC)C(C)C)C(C)C)[C@H](C)OCc1ccccc1`, 7.80.
On to `CC[C@@H](C)[C@@H](NC(=O)[C@H](NC(=O)[C@H](NC(=O)C(C)(C)NC(=O)OC(C)(C)C)C(C)C)C(C)C)C(=O)NC(C)(C)C(=O)N[C@@H](C(=O)N[C@@H](C(=O)NC(C)(C)C(=O)N[C@@H](C(=O)N[C@@H](C(=O)NC(C)(C)C(=O)OC)[C@H](C)CC)C(C)C)C(C)C)[C@H](C)OCc1ccccc1` (single isomer, unassigned), for which the pIC50 in assay [1] was 7.55.
